From patent US11566039B2, “Lincosamide antibiotics and uses thereof” (President and Fellows of Harvard College, priority 2017, dated 2023)
Values after ≈ are worked out from the molar mass of the structure shown. Where two headings read alike, the source gives them in different places.

Columns and labels:
Assay type in all cases: cell-based
[1] = test system: E. coli MP-9 ΔTolC; test: MIC against E. coli MP-9 ΔTolC
[2] = test system: S. aureus ATCC 29213; test: MIC against S. aureus ATCC 29213
[3] = test system: K. pneumoniae ATCC 10031; test: MIC against K. pneumoniae ATCC 10031
[4] = test system: S. aureus BAA 977 iErmA; test: MIC against S. aureus BAA 977 iErmA; conditions: Staphylococcus aureus, BAA977
[5] = test system: S. pneumoniae ATCC 49619; test: MIC against S. pneumoniae ATCC 49619
[6] = test system: E. faecalis ATCC 29212; test: MIC against E. faecalis ATCC 29212
[7] = test system: S. pyogenes ATCC 19615; test: MIC against S. pyogenes ATCC 19615
[8] = test system: E. coli ATCC 25922; test: MIC against E. coli ATCC 25922
[9] = test system: E. coli MP-74 LptD mutant; test: MIC against E. coli MP-74 LptD mutant
[10] = test system: H. influenzae ATCC 49247; test: MIC against H. influenzae ATCC 49247
[11] = test system: C. difficile BAA 1805; test: MIC against C. difficile BAA 1805; conditions: Clostridioides difficile, BAA1805
[12] = test system: S. aureus MP-549 msr(a) USA 300; test: MIC against S. aureus MP-549 msr(a) USA 300
[13] = Staphylococcus aureus, ATCC29213, S. aureus ATCC 29213, read-out: MIC
[14] = Klebsiella pneumoniae, ATCC10031, read-out: MIC
[15] = Streptococcus pneumoniae, ATCC49619, S. pneumoniae ATCC 49619, read-out: MIC
[16] = Enterococcus faecalis, ATCC29212, E. faecalis ATCC 29212, read-out: MIC
[17] = Streptococcus pyogenes, ATCC19615, S. pyogenes ATCC 19615, read-out: MIC
[18] = Escherichia coli, ATCC25922, read-out: MIC
[19] = Haemophilus influenzae, ATCC49247, H. influenzae ATCC 49247, read-out: MIC
[20] = Staphylococcus aureus, USA300, S. aureus MP-549 msr(a) USA 300

Compound	MIC ([1]; Escherichia coli) [µg/mL]	MIC [2, 13] [µg/mL]	MIC [3, 14] [µg/mL]	MIC [4] [µg/mL]	MIC [5, 15] [µg/mL]	MIC [6, 16] [µg/mL]	MIC [7, 17] [µg/mL]	MIC [8, 18] [µg/mL]	MIC ([9]; Escherichia coli) [µg/mL]	MIC [10, 19] [µg/mL]	MIC [12, 20] [µg/mL]	further results
CCC[C@@H]1C[C@@H](C(=O)N[C@H]([C@H](C)N=[N+]=[N-])[C@H]2OC(SC)[C@H](O)C(O)C2O)N(C)C1 (stereo partly drawn) [FSA-215038, 7-(S)-deoxyazidolincomycin]	> 64	0.25 (≈ 0.579 µM)	> 64	0.5 (≈ 1.16 µM)	0.25 (≈ 0.579 µM)	32 (≈ 74.1 µM)	0.125 (≈ 0.29 µM)	> 64				
CCC[C@@H]1C[C@@H](C(=O)N[C@@H]([C@H]2OC(SC)[C@H](O)C(O)C2O)[C@H](C)N(C)C)N(C)C1 (some centres unmarked) [FSA-215070]	> 64	64 (≈ 148 µM)	> 64	64 (≈ 148 µM)	16 (≈ 36.9 µM)	> 64	32 (≈ 73.8 µM)	> 64	> 64	> 64	64 (≈ 148 µM)	MIC [11]: > 64 µg/mL
C=C[C@@H](NC(=O)[C@@H]1C[C@@H](CCC)CN1C)[C@H]1OC(SC)[C@H](O)C(O)C1O (some centres unmarked) [FSA-215031]	> 64	8 (≈ 20.6 µM)	> 64	8 (≈ 20.6 µM)	2 (≈ 5.15 µM)	32 (≈ 82.4 µM)	2 (≈ 5.15 µM)	> 64				
CCC[C@@H]1C[C@@H](C(=O)N[C@H](CN)[C@H]2OC(SC)[C@H](O)C(O)C2O)N(C)C1 (some centres unmarked) [FSA-215077]	> 64	> 64	> 64	> 64	> 64	> 64	> 64	> 64	> 64	> 64	> 64	
CCC[C@@H]1C[C@@H](C(=O)N[C@H](COC(=O)Nc2ccccc2)[C@H]2OC(SC)[C@H](O)C(O)C2O)N(C)C1 (some centres unmarked) [FSA-215036]	> 64	> 64	> 64	> 64	16 (≈ 31.3 µM)	> 64	64 (≈ 125 µM)	> 64				
CCC[C@@H]1C[C@@H](C(=O)N[C@H]([C@H](C)NC2CC2)[C@H]2OC(SC)[C@H](O)C(O)C2O)N(C)C1 (some centres unmarked) [FSA-215028c]	> 64	64 (≈ 144 µM)	> 64	32 (≈ 71.8 µM)	16 (≈ 35.9 µM)	> 64	8 (≈ 18 µM)	> 64				
CCC[C@@H]1C[C@@H](C(=O)N[C@H]([C@H](C)NC(=O)CCCN)[C@H]2OC(SC)[C@H](O)C(O)C2O)N(C)C1 (some centres unmarked) [FSA-215052]	> 64	> 64	> 64	> 64	> 64	> 64	32 (≈ 65.2 µM)	> 64				
CCC[C@@H]1C[C@@H](C(=O)N[C@@H]([C@H]2OC(SC)[C@H](O)C(O)C2O)[C@H](C)n2ccnc2)N(C)C1 (some centres unmarked) [FSA-215064]	> 64	64 (≈ 140 µM)	> 64	> 64	16 (≈ 35 µM)	> 64	8 (≈ 17.5 µM)	> 64	> 64			
CCC[C@@H]1C[C@@H](C(=O)N[C@H]([C@H](C)NC(=O)CCN)[C@H]2OC(SC)[C@H](O)C(O)C2O)N(C)C1 (some centres unmarked) [FSA-215054]	> 64	> 64	> 64	> 64	> 64	> 64	64 (≈ 134 µM)	> 64				
CCC[C@@H]1C[C@@H](C(=O)N[C@@H]([C@H]2OC(SC)[C@H](O)C(O)C2O)[C@H](C)N(C)Cc2ccccc2[N+](=O)[O-])N(C)C1 (some centres unmarked) [FSA-215081]	> 64	4 (≈ 7.21 µM)	> 64	4 (≈ 7.21 µM)	2 (≈ 3.61 µM)	> 64	1 (≈ 1.8 µM)	> 64	> 64	> 64	4 (≈ 7.21 µM)	
CCC[C@@H]1C[C@@H](C(=O)N[C@H]([C@H](C)NC(=N)N)[C@H]2OC(SC)[C@H](O)C(O)C2O)N(C)C1 (some centres unmarked) [FSA-215059]	> 64	32 (≈ 71.5 µM)	> 64	32 (≈ 71.5 µM)	8 (≈ 17.9 µM)	> 64	4 (≈ 8.94 µM)	> 64	> 64			
CCC[C@@H]1C[C@@H](C(=O)N[C@H]([C@H](C)NCc2ccc(F)cc2)[C@H]2OC(SC)[C@H](O)C(O)C2O)N(C)C1 (some centres unmarked) [FSA-215025d]	> 64	4 (≈ 7.79 µM)	> 64	4 (≈ 7.79 µM)	2 (≈ 3.89 µM)	> 64	1 (≈ 1.95 µM)	> 64				
CCC[C@@H]1C[C@@H](C(=O)N[C@@H]([C@H]2OC(SC)[C@H](O)C(O)C2O)[C@H](C)n2cc(CN)nn2)N(C)C1 (some centres unmarked) [FSA-215072]	> 64	> 64	> 64	> 64	8 (≈ 16.4 µM)	> 64	8 (≈ 16.4 µM)	> 64	> 64			
CCC[C@@H]1C[C@@H](C(=O)N[C@H]([C@H](C)NC(=O)CN)[C@H]2OC(SC)[C@H](O)C(O)C2O)N(C)C1 (some centres unmarked) [FSA-215071]	> 64	> 64	> 64	> 64	8 (≈ 17.3 µM)	> 64	16 (≈ 34.6 µM)	> 64	> 64	> 64	> 64	MIC [11]: > 64 µg/mL
CCC[C@@H]1C[C@@H](C(=O)N[C@H]([C@@H]2CCC(O)C2O)[C@H]2OC(SC)[C@H](O)C(O)C2O)N(C)C1 (single isomer, unassigned) [FSA-217039b]												MIC [1]: >64 µg/mL; MIC ([2]; S. aureus ATCC 29213): 4 µg/mL (≈ 8.65 µM); MIC [3]: >64 µg/mL; MIC ([5]; S. pneumoniae ATCC 49619): 1 µg/mL (≈ 2.16 µM); MIC [9]: >64 µg/mL; MIC ([10]; H. influenzae ATCC 49247): >64 µg/mL; MIC ([6]; E. faecalis ATCC 29212): >64 µg/mL; MIC ([7]; S. pyogenes ATCC 19615): 0.5 µg/mL (≈ 1.08 µM); MIC [8]: >64 µg/mL; MIC ([12]; S. aureus MP-549 msr(a) USA 300): 8 µg/mL (≈ 17.3 µM)
CCC[C@@H]1C[C@@H](C(=O)N[C@H]([C@H](C)NC(=O)CN(C)C)[C@H]2OC(SC)[C@H](O)C(O)C2O)N(C)C1 (some centres unmarked) [FSA-215078b]	> 64	> 64	> 64	> 64	8 (≈ 16.3 µM)	> 64	8 (≈ 16.3 µM)	> 64	> 64	> 64	> 64	MIC [11]: > 64 µg/mL
C=CC(C)(C)[C@@H](NC(=O)[C@@H]1C[C@@H](CCC)CN1C)[C@H]1OC(SC)[C@H](O)C(O)C1O (some centres unmarked) [FSA-217009]	> 64	0.25 (≈ 0.581 µM)	> 64		0.5 (≈ 1.16 µM)	64 (≈ 149 µM)	0.12 (≈ 0.279 µM)	> 64	32 (≈ 74.3 µM)	64 (≈ 149 µM)	0.25 (≈ 0.581 µM)	
